The experiment addresses T1, human M2 receptor (Homo sapiens, UniProt P08172).
T1 sequence (P08172 1-466): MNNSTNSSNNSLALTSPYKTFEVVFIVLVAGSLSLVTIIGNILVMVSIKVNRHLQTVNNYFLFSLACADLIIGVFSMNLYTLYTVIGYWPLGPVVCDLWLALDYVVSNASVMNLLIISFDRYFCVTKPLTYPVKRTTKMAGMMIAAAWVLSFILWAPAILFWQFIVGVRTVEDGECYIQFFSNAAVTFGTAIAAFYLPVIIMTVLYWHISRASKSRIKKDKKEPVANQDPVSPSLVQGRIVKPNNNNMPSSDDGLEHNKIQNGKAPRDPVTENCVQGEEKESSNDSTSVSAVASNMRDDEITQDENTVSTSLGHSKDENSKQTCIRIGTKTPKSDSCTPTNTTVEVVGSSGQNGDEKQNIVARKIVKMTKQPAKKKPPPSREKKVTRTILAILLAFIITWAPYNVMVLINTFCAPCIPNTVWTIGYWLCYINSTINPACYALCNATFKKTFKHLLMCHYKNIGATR
In words: Functional M2-GIRK1/4 activation test: allosteric potency (EC50) and efficiency. The settings on record: for EC50: Receptor activity EC50, CHO-DUKX-M2-GIRK cells, acetylcholine at EC20, in some cases mean of two or more determinations; for Emax: read-out: Efficiency, boosting of the acetylcholine effect at EC20 acetylcholine concentration; for Emax / Efficiency: CHO-DUKX-M2-GIRK cells; for Efficiency: boosting of the acetylcholine effect at EC20 acetylcholine concentration.

As usually defined, the EC50 is the concentration at which the effect is half-maximal. Low values mean an effect from little substance, high ones a need for much substance. On to `O=C(N[C@H](C1CC1)C(F)(F)F)c1cn(-c2ncc(F)cc2Cl)c2nc(N3C[C@@H](O)[C@H](O)C3)ccc2c1=O` [Example 51, 1-(3-Chloro-5-fluoropyridin-2-yl)-N-[(1R)-1-cyclopropyl-2,2,2-trifluoroethyl]-7-[(3R,4R)-3,4-dihydroxypyrrolidin-1-yl]-4-oxo-1,4-dihydro-1,8-naphthyridine-3-carboxamide], for which the EC50 was 527 nM and the Emax came to 84.3%.
In the same order, the values of `CC[C@@H](NC(=O)c1cn(-c2ncc(F)cc2F)c2nc(N3CC4CC4(O)C3)ccc2c1=O)C(F)(F)F` (single isomer, unassigned) [Example 44] are 31 nM and 98.5%.
With `CC1C(O)C2(CC2)C(=O)N1c1ccc2c(=O)c(C(=O)N[C@H](C3CC3)C(F)(F)F)cn(-c3ncc(F)cc3F)c2n1` (stereo partly drawn) [Example 114, N-[(1R)-1-Cyclopropyl-2,2,2-trifluoroethyl]-1-(3,5-difluoropyridin-2-yl)-7-[7-hydroxy-6-methyl-4-oxo-5-azaspiro[2.4]hept-5-yl]-4-oxo-1,4-dihydro-1,8-naphthyridine-3-carboxamide], the EC50 stood at 111 nM and the Emax is 96.5%.
Turning to `CCC(NC(=O)c1cn(-c2ncc(F)cc2F)c2nc(N3C[C@@H](O)[C@H](O)C3)ccc2c1=O)C(F)(F)C(F)(F)F` (mixture of isomers) [Example 95, 1-(3,5-Difluoropyridin-2-yl)-7-[(3R,4R)-3,4-dihydroxypyrrolidin-1-yl]-4-oxo-N-[1,1,1,2,2-pentafluoropentan-3-yl]-1,4-dihydro-1,8-naphthyridine-3-carboxamide], the EC50 turned out to be 26 nM and the Emax came to 100%.
In turn, `CC1C(=O)N(c2ccc3c(=O)c(C(=O)N[C@@H](C4CC4)C(F)(F)F)cn(-c4ncc(F)cc4F)c3n2)CC1O` (single isomer, unassigned) [Example 107] showed an EC50 of 97 nM and an Efficiency of 98.00%.
As to `CC1C(=O)N(c2ccc3c(=O)c(C(=O)N[C@@H](C4CC4)C(F)(F)F)cn(-c4ncc(F)cc4F)c3n2)CC1O` (single isomer, unassigned) [Example 105], a half-maximal effect (EC50) was put at 98 nM and the Emax came out at 100%.
For `O=C(NC(c1ccccc1Cl)C(F)(F)F)c1cn(-c2ncc(F)cc2F)c2nc(N3C[C@@H](O)CC3=O)ccc2c1=O` (single isomer, unassigned) [Example 6], in that order: 14 nM and 95%.
The compound `CC1C(=O)N(c2ccc3c(=O)c(C(=O)N[C@@H](C4CC4)C(F)(F)F)cn(-c4ncc(F)cc4F)c3n2)CC1O` (single isomer, unassigned) [Example 106] gave a half-maximal effective concentration (EC50) of 165 nM and an Efficiency of 91.50%.
With `CC(C)(NC(=O)c1cn(-c2ncc(F)cc2F)c2nc(N3CCCC[C@@H]3CO)ccc2c1=O)C(F)(F)C(F)(F)F` [Example 173, 1-(3,5-Difluoropyridin-2-yl)-7-[(2R)-2-(hydroxymethyl)piperidin-1-yl]-4-oxo-N-(3,3,4,4,4-pentafluoro-2-methylbutan-2-yl)-1,4-dihydro-1,8-naphthyridine-3-carboxamide], the concentration for a half-maximal effect (EC50) was found to be 88 nM and the Emax is 100%.
In the same order, the values of `CC(C)(CC(F)(F)F)NC(=O)c1cn(-c2ncc(F)cc2F)c2nc(N3C[C@@H](O)[C@H](O)C3)ccc2c1=O` [Example 91, 1-(3,5-Difluoropyridin-2-yl)-7-[(3R,4R)-3,4-dihydroxypyrrolidin-1-yl]-4-oxo-N-(4,4,4-trifluoro-2-methylbutan-2-yl)-1,4-dihydro-1,8-naphthyridine-3-carboxamide] are 280 nM and 99%.
In the same order, the values of `CC1(O)CCN(c2ccc3c(=O)c(C(=O)N[C@H](C4CC4)C(F)(F)F)cn(-c4ncc(F)cc4Cl)c3n2)C1` (mixture of isomers) [Example 53, 1-(3-Chloro-5-fluoropyridin-2-yl)-N-[(1R)-1-cyclopropyl-2,2,2-trifluoroethyl]-7-[3-hydroxy-3-methylpyrrolidin-1-yl]-4-oxo-1,4-dihydro-1,8-naphthyridine-3-carboxamide] are 555 nM and 96.5%.
For `CC[C@H](NC(=O)c1cn(-c2ncc(F)cc2F)c2nc(N3CCN(CCO)C3=O)ccc2c1=O)C(F)(F)F` [Example 119, 1-(3,5-Difluoropyridin-2-yl)-7-[3-(2-hydroxyethyl)-2-oxoimidazolidin-1-yl]-4-oxo-N-[(2S)-1,1,1-trifluorobutan-2-yl]-1,4-dihydro-1,8-naphthyridine-3-carboxamide], in that order: 790 nM and 92%.
On to `CC1C(=O)N(c2ccc3c(=O)c(C(=O)N[C@@H](C4CC4)C(F)(F)F)cn(-c4ncc(F)cc4F)c3n2)CC1O` (mixture of isomers) [Example 104, N-[(1S)-1-Cyclopropyl-2,2,2-trifluoroethyl]-1-(3,5-difluoropyridin-2-yl)-7-[4-hydroxy-3-methyl-2-oxopyrrolidin-1-yl]-4-oxo-1,4-dihydro-1,8-naphthyridine-3-carboxamide], for which the concentration giving a half-maximal response (EC50) is 250 nM and the Emax was determined as 98.5%.
In the same order, the values of `CC[C@H](NC(=O)c1cn(-c2ncc(F)cc2F)c2nc(N3CC(O)C3)ccc2c1=O)C(F)(F)F` [Example 133, 1-(3,5-Difluoropyridin-2-yl)-7-(3-hydroxyazetidin-1-yl)-4-oxo-N-[(2S)-1,1,1-trifluorobutan-2-yl]-1,4-dihydro-1,8-naphthyridine-3-carboxamide] are 315 nM and 92%.
For `O=C(N[C@H](C1CC1)C(F)(F)F)c1cn(-c2ncccc2Cl)c2nc(N3CC4CC4(O)C3)ccc2c1=O` (mixture of isomers) [Example 54, 1-(3-Chloropyridin-2-yl)-N-[(1R)-1-cyclopropyl-2,2,2-trifluoroethyl]-7-[1-hydroxy-3-azabicyclo[3.1.0]hex-3-yl]-4-oxo-1,4-dihydro-1,8-naphthyridine-3-carboxamide], in that order: 350 nM and 94.7%.
For `CC(CF)(CF)NC(=O)c1cn(-c2ncc(F)cc2F)c2nc(N3C[C@@H](O)[C@H](O)C3)ccc2c1=O` [Example 103, N-(1,3-Difluoro-2-methylpropan-2-yl)-1-(3,5-difluoropyridin-2-yl)-7-[(3R,4R)-3,4-dihydroxypyrrolidin-1-yl]-4-oxo-1,4-dihydro-1,8-naphthyridine-3-carboxamide], in that order: 305 nM and 100%.
On to `O=C(NC(c1cccc(F)c1)C(F)(F)F)c1cn(-c2ncc(F)cc2F)c2nc(N3C[C@@H](O)CC3=O)ccc2c1=O` (stereo partly drawn) [Example 10, 1-(3,5-Difluoropyridin-2-yl)-7-[(4S)-4-hydroxy-2-oxopyrrolidin-1-yl]-4-oxo-N-[2,2,2-trifluoro-1-(3-fluorophenyl)ethyl]-1,4-dihydro-1,8-naphthyridine-3-carboxamide], for which the concentration giving a half-maximal response (EC50) was determined as 25 nM and the Emax is 95.5%.
For `CC[C@H](NC(=O)c1cn(-c2ncc(F)cc2F)c2nc(N(C)C)ccc2c1=O)C(F)(F)F` [Example 130, 1-(3,5-Difluoropyridin-2-yl)-7-(dimethylamino)-4-oxo-N-[(2S)-1,1,1-trifluorobutan-2-yl]-1,4-dihydro-1,8-naphthyridine-3-carboxamide], in that order: 53 nM and 93%.

(Values after patent US10519154B2, “7-substituted 1-pyridyl-naphthyridine-3-carboxylic acid amides and use thereof” (Bayer Pharma Aktiengesellschaft, priority 2016, dated 2019).)
